“Also recorded” adds a separate entry of the source. Where two headings read alike, the source gives them in different places. One block for each molecule: values may come before it. *1 amine or outer side, *2 acyl side, *3 side chain or, on linkers, in order; H or OH if unused. Where a SMILES comes first, the peptide text is derived from it. Where no end group is shown, it is not given here. [ ]: non-standard residue; d: D form. The star is where a group is joined. Phe(4-NO2) = N[C@@H](Cc1ccc([N+](=O)[O-])cc1)C(=O)O; Phe(4-Cl) = N[C@@H](Cc1ccc(Cl)cc1)C(=O)O; 2Thi = N[C@@H](Cc1cccs1)C(=O)O; AMC = Cc1cc(=O)oc2cc(N*)ccc12; Suc = O=C(CCC(=O)[*:2])[*:1]; Nva = CCC[C@H](N)C(=O)O; Cbz = O=C(OCc1ccccc1)*
Experiments:
[1] = Human serum stability of library peptides by LC/MS; type: in vitro ADME; conditions: 20S CP one hour vs 10% human serum 10 min
Source text: This is supported by when we first optimized conditions for treating the peptides with human serum using Tyr-containing peptide.
Specifically, these were the four Phe derivatives tested. […] Because we were interested in the effects of unnatural amino acids in increasing the specificity of our 20S CP recognition sequence, we moved forward with Phe(4-Cl) and Phe(4-NO2) as Tyr substitutes in our probe structure to create TAS2 and TAS3, respectively (FIG. 1B).

20S CP [2] = molecular target: T1, 20S CP (Homo sapiens, UniProt P20618+P28074); assay: LC/MS assay of peptide library as 20S CP substrates; type: biochemical; conditions: 12 μM peptide, 9 nM 20S CP, 37° C., one hour
Protocol: To evaluate this set of peptides as potential 20S CP substrates, we applied a similar LC/MS-based assay to that used to discover the immunoproteasome probe. Briefly, the peptides were dissolved in DMSO at a stock concentration of 600 μM. The peptides were then diluted in 50 mM tris buffer, pH 7.4, in a 96-well plate for a final assay concentration of 12 μM in two sets of triplicates. One set of triplicates served as a negative control, incubated in tris buffer alone. For analysis, this would correspond to the ionization intensity of completely intact samples, which can then be compared to the amount of intact peptide remaining in 20S CP-treated samples. To the other triplicate was added 20S CP to a final concentration of 9 nM. All samples were incubated at 37° C. for one hour before an equal volume of acetonitrile was added to halt degradation by denaturing the 20S CP. Samples were dried, resuspended in 50/50 water/acetonitrile with 0.1% formic acid and analyzed by LC/MS (example spectra can be found in Supporting Information Appendix B).
For each peptide, the mass of the full (uncleaved) structure was extracted (extracted ion chromatogram, EIC) from each sample and this peak was integrated to obtain the peak area. The peak areas for the negative control samples of individual structures were averaged and set to 1. Peak areas for 20S CP-treated samples were then scaled to the average for the untreated sample and the triplicates averaged to obtain a value for the fraction of full peptide remaining (FIG. 4). To confirm that the peptide was being cleaved at the desired position, the mass of the corresponding 4mer-peptide cleavage product was found in each 20S CP-treated sample with significant decrease in full peptide observed.

20S CP [3] = conditions: cited from earlier work
[4] = tested on: A498, SK-MEL-2, MEL-92.1, SH-SY5Y and HEK293T cell lines; assay: Cell viability by Cell-Titer Glo; type: cell-based; conditions: remaining cell lines, 48 hours
Protocol: (§1) We also sought to correlate this proteasome activity trend with susceptibility to a proteasome inhibitor by determining the IC50 values of MG-132 with these six cells. Cells were dosed for 48 hours with increase concentrations of MG-132 then analyzed using Cell-Titer Glo to determine cell viability. […] Considering this, we still believe comparing cell lines for proteasome activity based on fluorescence with TAS2 would still provide insight to the relative dependency of various cancer cell lines on proteasome activity.

MM.1R = assay: Cell viability by Cell-Titer Glo; type: cell-based; conditions: 48 hours
Protocol: as §1

A549 cells = assay: Probe cleavage in live A549 cells with or without MG-132 pretreatment; type: cell-based; conditions: MG-132 10 μM pre-incubated one hour, each TAS probe at 10 μM
Protocol: We next sought to determine if the TAS probes would be suitable for cell-based assays. To accomplish this, A549 cells were plated at a density of 5,000 cells/well in a black 96 well plate with a black bottom. After allowing the cells to adhere to the plate, the samples were washed with PBS three times then dosed with 10 μM of each probe in modified KRBH buffer. The change in fluorescence was recorded on a microplate reader for 90 min. After allowing the signal to equilibrate for […], each sample was set to zero and the future time points were scaled accordingly. As was done with the biochemical data, a linear regression was fit to each set of data. From the slope, it is observed that the rate for TAS2 was the highest. To determine the in-cell selectivity, a set of samples pretreated with MG-132 (10 μM), a proteasome inhibitor, was included for each probe. These samples were pre-incubated with MG-132 in cell culture media for one hour before washing with PBS and dosing with each probe in modified KRBH buffer. […] To ensure this decrease was not a consequence of cell death, cells were treated in the same way and analyzed using Cell-Titer Glo.

20S CP [5] = assay: purified 20S CP; conditions: 37° C., up to two hours
[6] = 10% v/v human serum in tris buffer; conditions: up to 60 min
20S CP [7] = molecular target: T1, 20S CP; assay: Fluorescence hydrolysis of probes by purified 20S CP (plate reader); type: biochemical
Protocol: The peptide recognition sequence used was based on the commercially available 4-mer AMC probe (FIG. 1A), specifically Leu-Leu-Val-Tyr (SEQ ID NO: 1), to generate TAS1 (FIG. 1B). To determine if TAS1 had any enhanced sensitivity, the two probes were compared under the same conditions with purified 20S CP. Briefly, the probes were incubated in triplicate at 10 and 30 μM with 9 nM […] at 37° C. The change in fluorescence was monitored for two hours and the endpoint values were averaged and graphed for comparison (FIG. 1C). Because the two fluorophores have different excitation and emission wavelengths, the two experiments were performed separately but using the same conditions for the plate reader (i.e. gain, number of flashes, settling time, etc.). […] Since, unlike Suc-LLVY-AMC (SEQ ID NO: 1), TAS1 has the potential to have more than one cleavage site which could result in an increase in fluorescence (on either side of Rh110), we confirmed that the increase in signal is only from the recognition and cleavage of the peptide at the Tyr moiety by analyzing the 30 μM TAS1 samples by LC/MS (FIG. 2).
With these new peptide sequences in hand, we returned to incorporating the Rh110-peptoid moiety and to compare the cleavage of TAS1-3 with the 20S CP. We incubated all three probes at various concentrations with 9 nM 20S CP and monitored the change in fluorescence using a microplate reader. […] In order to compare the three probes, we fit a linear regression for the points from 10-60 min for 30 μM of each probe to obtain a rate for the change in fluorescence (Table 1). Of the three, TAS1 was hydrolyzed the quickest, although the slope for TAS2 was similar. […] To confirm that the change in fluorescence was due to amide bond cleavage at the expected site on the peptide, we analyzed the samples at a concentration of 30 μM by LC/MS (FIG. 3).

[8] = tested on: human purified 20S proteasome; assay: Detection of small molecule stimulators with TAS probes using purified 20S proteasome (FIG. 7B-7D); type: biochemical; conditions: detected with TAS1 and TAS3
Protocol: FIG. 7B-7D show the analysis of TAS probes (TAS-1-B, TAS-2-C, TAS-3-D) for their ability to detect different small molecule stimulators using human purified 20S proteasome.
All three probes were able to detect stimulation is determined by an increase in the % activity over 60 min as compared to the DMSO control. Both TAS1 and TAS3 can differentiate between weak (TRC-1 and TCM-1) and strong proteasome stimulators (MK-886).

proteasome = tested on: T2, proteasome; assay: Proteasome stimulation in cells monitored with TAS probes; type: cell-based
T2 construct: endogenous in cells; host or cells: A549 (inferred; the stimulator paragraph says only 'cells')
Source text: In addition to determining if our probes are capable of detecting a decrease in proteasome activity, we were also interested in monitoring molecules which have shown to increase proteasome activity, also known as proteasome stimulators. […] However, this method requires transfection of the MT-fusion protein into cells and analysis by Western blot. Given the promising results with MG-132, we expected our probes to be sensitive enough to detect proteasome stimulation in a similar manner. Using three molecules reported to have various degrees of stimulation, cells were dosed for one hour before washing and adding in each probe. The samples were then monitored for changes in fluorescence and analyzed in the same way as the MG-132 experiment.
Previously proteasome stimulators had been discovered using a biochemical assay that required purified proteasome. As with all enzyme purifications, the batch to batch activity can vary greatly, leading to inconsistent results. […]
Using three different stimulating small molecules previously validated using other methods, we found both TAS1 and TAS3 would be suitable to use in such an assay. […] An increase in proteasome activity can be detected after as little as 15 min of incubation time, which can help to increase throughput during a screening campaign. […]

Molecule: Phe(4-NO2): library peptide with Phe(4-NO2) in S1 position replacing Tyr, Ala-Ala dipeptide (LLV[Phe(4-NO2)]AA-NH2; N-terminus assumed; SMILES CC(C)C[C@H](NC(=O)[C@@H](N)CC(C)C)C(=O)N[C@H](C(=O)N[C@@H](Cc1ccc([N+](=O)[O-])cc1)C(=O)N[C@@H](C)C(=O)N[C@@H](C)C(N)=O)C(C)C)
Cleavage by 20S CP compared to human serum [1]: greater than three-times favored cleavage by the 20S CP

Molecule: Thi: library peptide with thienylalanine in S1 position replacing Tyr, Ala-Ala dipeptide (LLV[2Thi]AA-NH2; N-terminus assumed; SMILES CC(C)C[C@H](NC(=O)[C@@H](N)CC(C)C)C(=O)N[C@H](C(=O)N[C@@H](Cc1cccs1)C(=O)N[C@@H](C)C(=O)N[C@@H](C)C(N)=O)C(C)C)
Cleavage of peptide by 20S CP (in words) (20S CP [2]): highest amount of cleavage
Cleavage by 20S CP compared to human serum [1]: near equal cleavage by both

Molecule: Suc-LLVY-{AMC}
cleaved bond (20S CP [3]): Tyr-AMC

Molecule: CC(C)C[C@@H](C=O)NC(=O)[C@H](CC(C)C)NC(=O)[C@H](CC(C)C)NC(=O)OCc1ccccc1 [MG-132] (Cbz-Leu-Leu-Leu-aldehyde)
IC50 (cell viability) [4]: higher than that of MM.1R
IC50 (MM.1R): 264 nM
Decrease of slope of probe cleavage (A549 cells): ≥ 50%

Molecule: Phe(4-Cl): library peptide with Phe(4-Cl) in S1 position replacing Tyr, Ala-Ala dipeptide (LLV[Phe(4-Cl)]AA-NH2; N-terminus assumed; SMILES CC(C)C[C@H](NC(=O)[C@@H](N)CC(C)C)C(=O)N[C@H](C(=O)N[C@@H](Cc1ccc(Cl)cc1)C(=O)N[C@@H](C)C(=O)N[C@@H](C)C(N)=O)C(C)C)
Cleavage by 20S CP compared to human serum [1]: greater than three-times favored cleavage by the 20S CP

Molecule: Phe: library peptide with Phe in S1 position replacing Tyr, Ala-Ala dipeptide (LLVFAA)
Cleavage by 20S CP compared to human serum [1]: greater than three-times favored cleavage by the 20S CP

Molecule: CCCC[C@H](N)C(=O)O [norleucine]
Peptide cleaved by 20S CP (20S CP [2]): ~50%

Molecule: CNCC(=O)O [Sar]
Cleavage of peptide by 20S CP (in words) (20S CP [2]): significantly cleaved
Cleavage by 20S CP compared to human serum [1]: no significant difference in cleavage; also recorded: near equal cleavage by both

More lines, main results first:

cleaved bond (20S CP [5]): Tyr-Rh110
Molecule: Leu-Leu-Val-Tyr
not cleaved (20S CP [5]): only new peaks formed were the expected cleavage products
cleaved bond [6]: Leu-Leu, first_seen, 30 min; also recorded: Leu-Val, 60 min
not cleaved [6]: no productive cleavage for either 30 or 60 min

Peptide cleaved by 20S CP (20S CP [2]): ~50%
Molecule: Nva: library peptide with norvaline in S1 position replacing Tyr, Ala-Ala dipeptide (LLV[Nva]AA-NH2; N-terminus assumed; SMILES CCC[C@H](NC(=O)[C@@H](NC(=O)[C@H](CC(C)C)NC(=O)[C@@H](N)CC(C)C)C(C)C)C(=O)N[C@@H](C)C(=O)N[C@@H](C)C(N)=O)

Rate of Hydrolysis (20S CP [7]; 30 μM probe, 9 nM purified 20S CP, linear regression 10-60 min): 28.1 ΔRFU/min
Background fluorescence level (20S CP [7]; purified 20S CP assay): considerably higher level of background
Molecule: TAS3: Rh110-based peptide/peptoid hybrid probe with Phe(4-NO2) as Tyr substitute (LLV[Phe(4-NO2)]; also: Rh110-based probe, place not given here, peptide/peptoid hybrid)
Cleavage products after incubation with 20S CP (LC/MS) (20S CP [7]; 30 μM probe, LC/MS): only produced the expected cleavage products

Cleavage of peptide by 20S CP (in words) (20S CP [2]): did not accept
Molecule: D-Phe: library peptide with D-Phe moiety in S1 position replacing Tyr, Ala-Ala dipeptide (LLV[dF]AA-NH2; N-terminus assumed; SMILES CC(C)C[C@H](NC(=O)[C@@H](N)CC(C)C)C(=O)N[C@H](C(=O)N[C@H](Cc1ccccc1)C(=O)N[C@@H](C)C(=O)N[C@@H](C)C(N)=O)C(C)C)

Proteasome stimulator strength (% activity over 60 min vs DMSO) [8]: strong
Increase in proteasome activity vs DMSO (proteasome; probe TAS1, cells dosed one hour): greater than 3 fold
Increase in proteasome activity vs DMSO (proteasome; probe TAS3, cells dosed one hour): greater than 3 fold
Molecule: CC(C)c1ccc2c(c1)c(SC(C)(C)C)c(CC(C)(C)C(=O)O)n2Cc1ccc(Cl)cc1 [MK-886]

Peptide cleaved by 20S CP (20S CP [2]): ~50%
Molecule: N[C@@H](CCO)C(=O)O [Hse]

— patent US12618847B2 (Purdue Research Foundation, priority 2020, dated 2026)
